Data from paper PMC11249646, “Small-Molecule Disruptors of the Interaction between Calcium- and Integrin-Binding Protein 1 and Integrin αIIbβ3 as Novel Antiplatelet Agents” (ACS Pharmacology & Translational Science, 2024).

Target: T1, CIB1 and αIIb interaction (CIB1-GST : F-αIIb peptide) (Homo sapiens, UniProt Q99828)
T1 construct: made in house; host or cells: BL-21 plus RIL cells (E. coli)
T1 sequence (Q99828 1-191): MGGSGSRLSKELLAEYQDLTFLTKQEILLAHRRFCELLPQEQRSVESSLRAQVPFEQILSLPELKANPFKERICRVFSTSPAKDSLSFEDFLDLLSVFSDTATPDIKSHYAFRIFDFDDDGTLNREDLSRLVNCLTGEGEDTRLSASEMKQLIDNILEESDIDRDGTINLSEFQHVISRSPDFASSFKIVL
Test: FP assay, 1536-well qHTS format (primary and confirmatory screen)
Format: binding
Conditions: confirmatory screen

| SMILES | Efficacy (%) (confirmatory screen) |
| --- | --- |
| Cl.O=[N+]([O-])c1ccc(CNc2ccc(S(=O)(=O)Nc3nccs3)cc2)c(O)c1 [NCGC00273519-01] | -67% |
| Cl.O=[N+]([O-])c1cccc(CNc2ccc(S(=O)(=O)Nc3nccs3)cc2)c1O [NCGC00273554-01] | -49% |
| Nc1ccc(CNc2ccc(S(=O)(=O)Nc3nccs3)cc2)c(O)c1.O=C(O)C(F)(F)F [NCGC00273962-01] | -75% |

Results, then the compound that gave them:

| Efficacy (%) (confirmatory screen) | SMILES |
| --- | --- |
| -56% | CC(C)c1ccccc1Cc1cc(C(=O)Nc2ccc(S(=O)(=O)c3ccccc3C(C)(C)C)cc2)c(O)c(O)c1O [NCGC00263208-01] |
| -48% | Cl.O=S(=O)(Nc1nccs1)c1ccc(NCc2cc(Cl)ccc2O)cc1 [NCGC00273561-01] |

Same assay, conditions: confirmatory screen, YES/NO

| SMILES | Confirm? (confirmatory screen) |
| --- | --- |
| Cl.O=[N+]([O-])c1ccc(CNc2ccc(S(=O)(=O)Nc3nccs3)cc2)c(O)c1 [NCGC00273519-01] | YES |
| Cl.O=[N+]([O-])c1cccc(CNc2ccc(S(=O)(=O)Nc3nccs3)cc2)c1O [NCGC00273554-01] | YES |
| Nc1ccc(CNc2ccc(S(=O)(=O)Nc3nccs3)cc2)c(O)c1.O=C(O)C(F)(F)F [NCGC00273962-01] | YES |

More lines, now with the values ahead:

| Confirm? (confirmatory screen) | SMILES |
| --- | --- |
| YES | CC(C)c1ccccc1Cc1cc(C(=O)Nc2ccc(S(=O)(=O)c3ccccc3C(C)(C)C)cc2)c(O)c(O)c1O [NCGC00263208-01] |
| YES | Cl.O=S(=O)(Nc1nccs1)c1ccc(NCc2cc(Cl)ccc2O)cc1 [NCGC00273561-01] |

Same assay, conditions: confirmatory screen, qHTS curve class; negative sign = inhibitory curve

| SMILES | Curve Class (confirmatory screen) |
| --- | --- |
| Cl.O=[N+]([O-])c1ccc(CNc2ccc(S(=O)(=O)Nc3nccs3)cc2)c(O)c1 [NCGC00273519-01] | -2.4 |
| Cl.O=[N+]([O-])c1cccc(CNc2ccc(S(=O)(=O)Nc3nccs3)cc2)c1O [NCGC00273554-01] | -2.4 |
| Nc1ccc(CNc2ccc(S(=O)(=O)Nc3nccs3)cc2)c(O)c1.O=C(O)C(F)(F)F [NCGC00273962-01] | -3 |

Continued, values first:

| Curve Class (confirmatory screen) | SMILES |
| --- | --- |
| -1.2 | CC(C)c1ccccc1Cc1cc(C(=O)Nc2ccc(S(=O)(=O)c3ccccc3C(C)(C)C)cc2)c(O)c(O)c1O [NCGC00263208-01] |
| -2.4 | Cl.O=S(=O)(Nc1nccs1)c1ccc(NCc2cc(Cl)ccc2O)cc1 [NCGC00273561-01] |

Same assay, conditions: confirmatory screen; read-out: IC50 [μM] (confirmatory screen)

| SMILES | IC50 |
| --- | --- |
| Cl.O=[N+]([O-])c1ccc(CNc2ccc(S(=O)(=O)Nc3nccs3)cc2)c(O)c1 [NCGC00273519-01] | 12.6 µM |
| Cl.O=[N+]([O-])c1cccc(CNc2ccc(S(=O)(=O)Nc3nccs3)cc2)c1O [NCGC00273554-01] | 22.4 µM |
| Nc1ccc(CNc2ccc(S(=O)(=O)Nc3nccs3)cc2)c(O)c1.O=C(O)C(F)(F)F [NCGC00273962-01] | 89.1 µM |

Now from value to compound:

| IC50 | SMILES |
| --- | --- |
| 14.1 µM | CC(C)c1ccccc1Cc1cc(C(=O)Nc2ccc(S(=O)(=O)c3ccccc3C(C)(C)C)cc2)c(O)c(O)c1O [NCGC00263208-01] |
| 50.1 µM | Cl.O=S(=O)(Nc1nccs1)c1ccc(NCc2cc(Cl)ccc2O)cc1 [NCGC00273561-01] |

Same assay, conditions: qHTS primary screen hits, Table S2; negative = inhibition

| SMILES | Efficacy (%) |
| --- | --- |
| Cl.O=[N+]([O-])c1ccc(CNc2ccc(S(=O)(=O)Nc3nccs3)cc2)c(O)c1 [NCGC00273519-01] | -24% |
| Cl.O=[N+]([O-])c1cccc(CNc2ccc(S(=O)(=O)Nc3nccs3)cc2)c1O [NCGC00273554-01] | -27% |
| Nc1ccc(CNc2ccc(S(=O)(=O)Nc3nccs3)cc2)c(O)c1.O=C(O)C(F)(F)F [NCGC00273962-01] | -29% |

Results, then the compound that gave them:

| Efficacy (%) | SMILES |
| --- | --- |
| -27% | CC(C)c1ccccc1Cc1cc(C(=O)Nc2ccc(S(=O)(=O)c3ccccc3C(C)(C)C)cc2)c(O)c(O)c1O [NCGC00263208-01] |
| -27% | Cl.O=S(=O)(Nc1nccs1)c1ccc(NCc2cc(Cl)ccc2O)cc1 [NCGC00273561-01] |

Same assay, conditions: qHTS primary screen hits, Table S2; negative sign = inhibitory curve

| SMILES | Curve Class |
| --- | --- |
| CC(C)c1ccccc1Cc1cc(C(=O)Nc2ccc(S(=O)(=O)c3ccccc3C(C)(C)C)cc2)c(O)c(O)c1O [NCGC00263208-01] | -2.4 |
| Nc1ccc(CNc2ccc(S(=O)(=O)Nc3nccs3)cc2)c(O)c1.O=C(O)C(F)(F)F [NCGC00273962-01] | -2.4 |

Same assay, conditions: qHTS primary screen hits, Table S2; negative sign = inhibitory curve; several classes where COUNT > 1

| Curve Class | SMILES |
| --- | --- |
| -1.4 | Cl.O=[N+]([O-])c1ccc(CNc2ccc(S(=O)(=O)Nc3nccs3)cc2)c(O)c1 [NCGC00273519-01] |
| -1.4 | Cl.O=[N+]([O-])c1cccc(CNc2ccc(S(=O)(=O)Nc3nccs3)cc2)c1O [NCGC00273554-01] |
| -1.4 | Cl.O=S(=O)(Nc1nccs1)c1ccc(NCc2cc(Cl)ccc2O)cc1 [NCGC00273561-01] |

Same assay, conditions: qHTS primary screen hits, Table S2; read-out: IC50

| SMILES | IC50 |
| --- | --- |
| Cl.O=[N+]([O-])c1ccc(CNc2ccc(S(=O)(=O)Nc3nccs3)cc2)c(O)c1 [NCGC00273519-01] | 7.9 µM |
| Cl.O=[N+]([O-])c1cccc(CNc2ccc(S(=O)(=O)Nc3nccs3)cc2)c1O [NCGC00273554-01] | 7.1 µM |
| Nc1ccc(CNc2ccc(S(=O)(=O)Nc3nccs3)cc2)c(O)c1.O=C(O)C(F)(F)F [NCGC00273962-01] | 39.8 µM |

Other lines, results leading:

| IC50 | SMILES |
| --- | --- |
| 15.2 µM | CC(C)c1ccccc1Cc1cc(C(=O)Nc2ccc(S(=O)(=O)c3ccccc3C(C)(C)C)cc2)c(O)c(O)c1O [NCGC00263208-01] |
| 20 µM | Cl.O=S(=O)(Nc1nccs1)c1ccc(NCc2cc(Cl)ccc2O)cc1 [NCGC00273561-01] |

Target: T2, GST-CIB1 : F-scrambled peptide (Homo sapiens, UniProt Q99828)
T2 construct: made in house; host or cells: BL-21 plus RIL cells (E. coli)
T2 sequence (Q99828 1-191): T1 sequence (Q99828 1-191)
Test: FP scrambled-peptide counter screen, 1536-well format
Format: binding
Conditions: counterscreen

| SMILES | Efficacy (%) (counterscreen) |
| --- | --- |
| Cl.O=[N+]([O-])c1ccc(CNc2ccc(S(=O)(=O)Nc3nccs3)cc2)c(O)c1 [NCGC00273519-01] | -48% |
| Cl.O=[N+]([O-])c1cccc(CNc2ccc(S(=O)(=O)Nc3nccs3)cc2)c1O [NCGC00273554-01] | -43% |
| Nc1ccc(CNc2ccc(S(=O)(=O)Nc3nccs3)cc2)c(O)c1.O=C(O)C(F)(F)F [NCGC00273962-01] | -61% |

Further lines, results first:

| Efficacy (%) (counterscreen) | SMILES |
| --- | --- |
| -40% | CC(C)c1ccccc1Cc1cc(C(=O)Nc2ccc(S(=O)(=O)c3ccccc3C(C)(C)C)cc2)c(O)c(O)c1O [NCGC00263208-01] |
| -36% | Cl.O=S(=O)(Nc1nccs1)c1ccc(NCc2cc(Cl)ccc2O)cc1 [NCGC00273561-01] |

Same assay, conditions: counterscreen, YES/NO

| Confirm? (counterscreen) | SMILES |
| --- | --- |
| YES | Cl.O=S(=O)(Nc1nccs1)c1ccc(NCc2cc(Cl)ccc2O)cc1 [NCGC00273561-01] |

Same assay, conditions: counterscreen, qHTS curve class; negative sign = inhibitory curve

| SMILES | Curve Class (counterscreen) |
| --- | --- |
| Cl.O=[N+]([O-])c1ccc(CNc2ccc(S(=O)(=O)Nc3nccs3)cc2)c(O)c1 [NCGC00273519-01] | -2.2 |
| Cl.O=[N+]([O-])c1cccc(CNc2ccc(S(=O)(=O)Nc3nccs3)cc2)c1O [NCGC00273554-01] | -2.2 |
| Nc1ccc(CNc2ccc(S(=O)(=O)Nc3nccs3)cc2)c(O)c1.O=C(O)C(F)(F)F [NCGC00273962-01] | -2.2 |

More lines, now with the values ahead:

| Curve Class (counterscreen) | SMILES |
| --- | --- |
| -1.2 | CC(C)c1ccccc1Cc1cc(C(=O)Nc2ccc(S(=O)(=O)c3ccccc3C(C)(C)C)cc2)c(O)c(O)c1O [NCGC00263208-01] |
| 4 | Cl.O=S(=O)(Nc1nccs1)c1ccc(NCc2cc(Cl)ccc2O)cc1 [NCGC00273561-01] |

Same assay, conditions: counterscreen; read-out: IC50 [μM] (counterscreen)

| IC50 | SMILES |
| --- | --- |
| 15.8 µM | CC(C)c1ccccc1Cc1cc(C(=O)Nc2ccc(S(=O)(=O)c3ccccc3C(C)(C)C)cc2)c(O)c(O)c1O [NCGC00263208-01] |
| 25.1 µM | Cl.O=[N+]([O-])c1ccc(CNc2ccc(S(=O)(=O)Nc3nccs3)cc2)c(O)c1 [NCGC00273519-01] |
| 50.1 µM | Cl.O=[N+]([O-])c1cccc(CNc2ccc(S(=O)(=O)Nc3nccs3)cc2)c1O [NCGC00273554-01] |

| SMILES | IC50 |
| --- | --- |
| Nc1ccc(CNc2ccc(S(=O)(=O)Nc3nccs3)cc2)c(O)c1.O=C(O)C(F)(F)F [NCGC00273962-01] | 50.1 µM |
